# Assay results: patent publication US20040109825A1, “Topical patch preparation kit containing a delayed-type hypersensitivity inducer” (priority 2002, published 2004)
# Legend:
# [1] = cited from earlier work
# [2] = Stability of DNCB in a dissolved state; assay type: physicochemical; details: even more unstable at high temperatures
smiles,measurement,setting,value
"O=[N+]([O-])c1ccc(Cl)c([N+](=O)[O-])c1 [DNCB, 1-chloro-2,4-dinitrobenzene]",adverse events of DNCB,[1]; reports to date,have not been any reports to date of cases of life-threatening adverse events
same,carcinogenicity,[1]; research conducted in the 1950s in the United States,not carcinogenic
same,stability in a dissolved state,[2],unstable in a dissolved state
